Results reported in patent US6746850B2 (priority 2000, dated 2004).
“And” between values parts separate entries of the source, which are not always exact repeats. Equal values may be shown once.

Assays:
[1] = target: T1, BChE (Cavia porcellus, UniProt H0V4F8); format: biochemical, Hartley guinea pig
[2] = target: T2, AChE (Cavia porcellus, UniProt D3YE96); format: biochemical, Hartley guinea pig
[3] = target: T1, BChE; format: biochemical, Hartley guinea pig; remark: listed apart in the source
[4] = target: AChE (Homo sapiens, UniProt P22303); format: biochemical
[5] = target: BChE (Homo sapiens, UniProt P06276); format: biochemical
[6] = target: AChE (Macaca mulatta, UniProt A0A5F7ZPE9); format: biochemical, Rhesus monkey
[7] = test system: BChE; format: biochemical, Rhesus monkey
[8] = target: T2, AChE; format: biochemical, Hartley guinea pig; remark: listed apart in the source
[9] = target: AChE (Rattus norvegicus, UniProt P37136); format: biochemical, Sprague Dawley rat
[10] = target: BChE (Rattus norvegicus, UniProt Q9JKC1); format: biochemical, Sprague Dawley rat
[11] = target: T2, AChE; settings: guinea pig, in vivo

| SMILES | AChE Coefficient (sensitivity coefficient) Value [4] | BChE Coefficient (sensitivity coefficient) Value [5] | AChE Coefficient (sensitivity coefficient) Value [6] | BChE Coefficient (sensitivity coefficient) Value [7] | AChE Coefficient (sensitivity coefficient) Value [9] | BChE Coefficient (sensitivity coefficient) Value [10] | other results |
| --- | --- | --- | --- | --- | --- | --- | --- |
| C/C=C1\[C@H]2C=C(C)C[C@]1(N)c1ccc(=O)[nH]c1C2 (racemic) [rac Hup-A, Racemic huperzine-A] |  |  |  |  |  |  | BChE Average [1]: 0.907 U/mL and 0.930 U/mL and 0.913 U/mL and 0.929 U/mL and 0.912 U/mL and 0.892 U/mL |
| C[n+]1ccccc1C=NO [2-PAM] |  |  |  |  |  |  | effect on AChE [2]: inhibited; effect on BChE [3]: relatively unaffected |
| CCCC(=O)SCC[N+](C)(C)C.[I-] [BTC, butyrylthiocholine iodide] | 82 mAbs/min/[blood] | 1466 mAbs/min/[blood] | 0 mAbs/min/[blood] | 661 mAbs/min/[blood] | 0 mAbs/min/[blood] | 62 mAbs/min/[blood] | AChE Coefficient (sensitivity coefficient) Value [8]: 0 mAbs/min/[blood] |
| CN(C)C(=O)Oc1ccc[n+](C)c1 [PB, pyridostigmine bromide] |  |  |  |  |  |  | peak inhibition time [11]: about 30 minutes |
| CCC(=O)SCC[N+](C)(C)C.[I-] [PTC, propionylthiocholine iodide] | 1071 mAbs/min/[blood] | 1417 mAbs/min/[blood] | 844 mAbs/min/[blood] | 514 mAbs/min/[blood] | 158 mAbs/min/[blood] | 134 mAbs/min/[blood] |  |
